Assay results: ChEMBL document CHEMBL1201862, “PubChem BioAssay data set” (2004)
Calls of active or inactive are those of the source.

How the values were obtained:
[1] = target: T1, Replicative DNA helicase DnaB (Mycobacterium tuberculosis, UniProt P9WMR3); assay: DnaB intein splicing inhibitors, dose response, biochemical, cell-free fluorescence (AID 449749); type: functional
T1 sequence (P9WMR3 whole entry): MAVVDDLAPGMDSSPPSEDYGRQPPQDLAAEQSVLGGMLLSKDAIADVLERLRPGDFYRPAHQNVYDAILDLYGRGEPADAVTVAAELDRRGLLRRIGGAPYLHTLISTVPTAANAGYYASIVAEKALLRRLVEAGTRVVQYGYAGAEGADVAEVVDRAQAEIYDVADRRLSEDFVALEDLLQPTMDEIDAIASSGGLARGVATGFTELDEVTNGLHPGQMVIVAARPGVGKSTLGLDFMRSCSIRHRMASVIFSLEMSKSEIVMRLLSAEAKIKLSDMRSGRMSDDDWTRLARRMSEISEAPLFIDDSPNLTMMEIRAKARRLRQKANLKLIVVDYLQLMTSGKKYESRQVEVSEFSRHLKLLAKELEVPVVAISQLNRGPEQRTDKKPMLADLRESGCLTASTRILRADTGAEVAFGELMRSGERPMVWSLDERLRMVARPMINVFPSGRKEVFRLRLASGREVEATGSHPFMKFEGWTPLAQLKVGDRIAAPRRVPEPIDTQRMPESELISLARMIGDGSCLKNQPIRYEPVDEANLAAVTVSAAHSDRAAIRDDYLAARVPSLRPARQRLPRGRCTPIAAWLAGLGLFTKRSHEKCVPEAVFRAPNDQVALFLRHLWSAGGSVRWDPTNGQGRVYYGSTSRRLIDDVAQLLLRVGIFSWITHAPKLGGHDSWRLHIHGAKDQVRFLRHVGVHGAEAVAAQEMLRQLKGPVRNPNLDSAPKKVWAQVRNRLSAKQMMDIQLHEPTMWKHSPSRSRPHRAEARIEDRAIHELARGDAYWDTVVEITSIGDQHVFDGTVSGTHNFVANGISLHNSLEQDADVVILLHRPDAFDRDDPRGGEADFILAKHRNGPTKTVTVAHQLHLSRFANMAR

Protein RecA = target: T2, Protein RecA (Mycobacterium tuberculosis, UniProt P9WHJ3); assay: Fluorescence Cell-Free Homogeneous Dose Retest to Identify Inhibitors of RecA-Intein Splicing Activity. [Related pubchem assays (depositor defined):AID2097, AID2223, AID489010, AID492950]; type: functional
T2 sequence (P9WHJ3 whole entry): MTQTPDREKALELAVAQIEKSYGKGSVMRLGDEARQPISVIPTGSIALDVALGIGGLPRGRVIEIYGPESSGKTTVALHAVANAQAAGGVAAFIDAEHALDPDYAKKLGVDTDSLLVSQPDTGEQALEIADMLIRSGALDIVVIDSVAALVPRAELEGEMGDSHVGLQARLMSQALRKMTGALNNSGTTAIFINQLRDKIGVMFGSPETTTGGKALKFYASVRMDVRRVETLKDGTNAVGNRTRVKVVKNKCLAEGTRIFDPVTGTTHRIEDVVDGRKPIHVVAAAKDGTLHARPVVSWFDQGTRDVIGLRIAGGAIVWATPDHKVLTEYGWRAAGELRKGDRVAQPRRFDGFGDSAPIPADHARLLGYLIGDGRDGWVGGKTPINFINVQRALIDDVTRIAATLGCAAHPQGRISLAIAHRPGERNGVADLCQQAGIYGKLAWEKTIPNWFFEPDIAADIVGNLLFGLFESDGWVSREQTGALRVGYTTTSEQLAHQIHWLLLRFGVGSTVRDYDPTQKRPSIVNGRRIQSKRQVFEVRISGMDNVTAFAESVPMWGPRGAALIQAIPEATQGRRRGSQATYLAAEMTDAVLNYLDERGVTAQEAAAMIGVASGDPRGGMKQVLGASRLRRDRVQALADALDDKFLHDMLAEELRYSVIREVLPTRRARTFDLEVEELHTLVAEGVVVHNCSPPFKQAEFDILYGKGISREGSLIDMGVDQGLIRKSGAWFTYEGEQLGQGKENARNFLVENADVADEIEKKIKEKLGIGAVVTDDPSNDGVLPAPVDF

Cytochrome P450 3A4 = Cytochrome P450 3A4 (Homo sapiens, UniProt P08684);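 further: CYP3A4 tested as one member of a cytochrome P450 panel screen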
Cytochrome P450 3A4, sequence (P08684 whole entry): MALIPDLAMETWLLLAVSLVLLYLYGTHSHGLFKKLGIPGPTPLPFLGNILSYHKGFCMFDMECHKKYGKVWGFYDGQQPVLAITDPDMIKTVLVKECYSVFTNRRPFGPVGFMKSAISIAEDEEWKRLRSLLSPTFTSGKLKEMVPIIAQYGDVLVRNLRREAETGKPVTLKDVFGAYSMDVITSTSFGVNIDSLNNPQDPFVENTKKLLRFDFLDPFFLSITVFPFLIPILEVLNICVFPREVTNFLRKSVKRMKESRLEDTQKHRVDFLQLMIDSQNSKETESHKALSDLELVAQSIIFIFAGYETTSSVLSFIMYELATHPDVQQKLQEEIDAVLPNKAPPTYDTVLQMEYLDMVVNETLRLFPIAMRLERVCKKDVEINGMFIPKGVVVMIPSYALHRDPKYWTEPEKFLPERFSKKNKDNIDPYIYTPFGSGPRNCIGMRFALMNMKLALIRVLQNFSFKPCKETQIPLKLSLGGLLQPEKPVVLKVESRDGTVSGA

[2] = target: T3, Endoribonuclease toxin MazF (Escherichia coli K-12, UniProt P0AE70); assay: activation of MazEF endoribonuclease cleavage – biochemical, fluorescence, single-stranded RNA substrate, uHTS hits, dose response (AID 588481); type: functional
T3 sequence (P0AE70 whole entry): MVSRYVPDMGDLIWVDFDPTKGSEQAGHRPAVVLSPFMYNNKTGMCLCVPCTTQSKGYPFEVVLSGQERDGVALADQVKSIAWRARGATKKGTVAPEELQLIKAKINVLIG

[3] = target: T3, Endoribonuclease toxin MazF; assay: substrate-only fluorescence increase artefacts – biochemical, single-stranded RNase substrate, counter-screen for MazEF activator project, dose response (AID 588502); type: functional
[4] = Luminescence Cell-Based Dose Retest to Confirm Inhibitors of Cancer Stem Cells. [Related pubchem assays (depositor defined):AID2717, AID2721]; type: functional; conditions: Homo sapiens
Vero = assay: cells; type: functional; conditions: Chlorocebus sabaeus
Nonstructural protein 1 = Nonstructural protein 1 (Influenza A virus, UniProt Q194T2); type: functional, Influenza A virus (A/California/07/2009(H1N1))
Nonstructural protein 1, sequence (Q194T2 whole entry): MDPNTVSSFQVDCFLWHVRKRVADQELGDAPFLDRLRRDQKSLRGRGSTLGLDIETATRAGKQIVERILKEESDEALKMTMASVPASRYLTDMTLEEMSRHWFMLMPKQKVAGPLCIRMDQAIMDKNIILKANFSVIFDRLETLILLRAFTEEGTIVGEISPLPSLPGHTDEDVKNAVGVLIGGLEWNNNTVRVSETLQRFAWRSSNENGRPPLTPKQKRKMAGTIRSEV

[5] = target: T4, Apoptotic protease-activating factor 1 (Homo sapiens, UniProt O14727); type: functional
T4 sequence (O14727 whole entry): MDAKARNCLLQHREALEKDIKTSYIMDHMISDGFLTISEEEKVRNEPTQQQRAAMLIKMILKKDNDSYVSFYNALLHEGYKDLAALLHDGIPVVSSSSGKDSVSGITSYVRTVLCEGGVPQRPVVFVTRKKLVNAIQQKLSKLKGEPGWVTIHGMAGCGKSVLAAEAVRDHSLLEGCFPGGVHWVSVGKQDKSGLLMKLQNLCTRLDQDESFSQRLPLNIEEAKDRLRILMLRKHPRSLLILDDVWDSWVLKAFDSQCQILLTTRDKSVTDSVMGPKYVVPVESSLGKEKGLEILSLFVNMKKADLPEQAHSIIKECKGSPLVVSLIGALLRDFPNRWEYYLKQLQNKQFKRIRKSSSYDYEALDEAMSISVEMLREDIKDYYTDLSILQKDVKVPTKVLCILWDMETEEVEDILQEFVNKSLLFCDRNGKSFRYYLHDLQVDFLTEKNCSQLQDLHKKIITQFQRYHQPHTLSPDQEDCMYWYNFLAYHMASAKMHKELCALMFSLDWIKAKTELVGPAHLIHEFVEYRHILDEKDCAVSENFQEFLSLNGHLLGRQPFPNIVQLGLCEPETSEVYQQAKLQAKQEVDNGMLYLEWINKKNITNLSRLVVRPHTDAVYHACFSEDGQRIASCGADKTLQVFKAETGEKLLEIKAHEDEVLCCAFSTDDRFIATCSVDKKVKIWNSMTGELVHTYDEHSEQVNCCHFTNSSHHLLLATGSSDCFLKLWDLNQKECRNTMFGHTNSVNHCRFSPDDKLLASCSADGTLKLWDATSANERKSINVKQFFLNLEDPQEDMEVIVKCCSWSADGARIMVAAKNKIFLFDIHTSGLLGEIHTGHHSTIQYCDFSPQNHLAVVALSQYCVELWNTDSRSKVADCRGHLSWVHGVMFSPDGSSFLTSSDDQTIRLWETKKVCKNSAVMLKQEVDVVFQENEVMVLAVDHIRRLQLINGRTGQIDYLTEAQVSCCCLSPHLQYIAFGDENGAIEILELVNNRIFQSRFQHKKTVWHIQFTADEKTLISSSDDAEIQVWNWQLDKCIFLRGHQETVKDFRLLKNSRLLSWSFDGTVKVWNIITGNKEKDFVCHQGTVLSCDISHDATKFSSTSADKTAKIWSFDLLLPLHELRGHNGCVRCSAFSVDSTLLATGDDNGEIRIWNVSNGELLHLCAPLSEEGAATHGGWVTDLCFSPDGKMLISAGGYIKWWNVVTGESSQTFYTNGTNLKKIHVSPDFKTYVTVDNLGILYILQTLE

[6] = activation of miR-122 Renilla sensor silencing – cell-based, Huh7 psiCHECK-miR122, Renilla luciferase, cherry-picked, dose response (AID 651956); type: functional;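 further: huh7 hepatoma cells stably carrying a psiCHECK-2 miR-122 sensor plasmid; renilla luciferase signal reporting endogenous miR-122 activity after 48 h compound exposure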
Genome polyprotein = Genome polyprotein (dengue virus type 2, UniProt P29990); assay: flavivirus cap methylation enzyme inhibition – biochemical, confirmation dose response, primary screen (AID 588689); type: functional
Genome polyprotein, sequence (P29990 2492-3391 limits assumed): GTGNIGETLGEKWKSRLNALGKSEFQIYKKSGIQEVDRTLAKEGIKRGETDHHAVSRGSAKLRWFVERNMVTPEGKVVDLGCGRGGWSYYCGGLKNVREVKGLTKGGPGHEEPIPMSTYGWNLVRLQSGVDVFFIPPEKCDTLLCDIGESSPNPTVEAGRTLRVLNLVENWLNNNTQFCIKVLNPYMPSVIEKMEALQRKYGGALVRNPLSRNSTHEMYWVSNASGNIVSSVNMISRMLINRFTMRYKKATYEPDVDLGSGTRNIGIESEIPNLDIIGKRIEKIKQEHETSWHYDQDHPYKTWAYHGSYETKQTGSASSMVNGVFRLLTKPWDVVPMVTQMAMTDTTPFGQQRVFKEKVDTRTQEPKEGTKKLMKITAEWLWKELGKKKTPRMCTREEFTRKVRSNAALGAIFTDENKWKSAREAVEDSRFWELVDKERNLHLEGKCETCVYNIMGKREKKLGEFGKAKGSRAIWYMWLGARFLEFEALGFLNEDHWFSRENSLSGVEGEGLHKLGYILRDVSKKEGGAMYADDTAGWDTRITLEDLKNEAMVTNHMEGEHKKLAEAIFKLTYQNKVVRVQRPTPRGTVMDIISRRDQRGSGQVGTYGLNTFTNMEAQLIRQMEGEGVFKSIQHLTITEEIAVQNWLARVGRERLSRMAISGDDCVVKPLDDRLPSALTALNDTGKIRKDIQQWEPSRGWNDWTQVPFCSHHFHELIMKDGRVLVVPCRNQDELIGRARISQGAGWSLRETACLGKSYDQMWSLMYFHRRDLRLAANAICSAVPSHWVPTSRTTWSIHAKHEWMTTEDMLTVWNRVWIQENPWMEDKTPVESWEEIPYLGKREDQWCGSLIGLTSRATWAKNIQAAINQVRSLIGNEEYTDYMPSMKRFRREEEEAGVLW

[7] = blockade of melanocortin 4 receptor signaling – cell-based, plate reader, cherry pick, counter-screen for LGR2 antagonist project, dose response (AID 743444); type: functional;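 further: transfected HEK 293 cells stimulated with alpha-MSH peptide; potency of inhibitors of the alpha-MSH evoked signal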
[8] = blockers of bursicon-stimulated LGR2 cAMP reporter – cell-based, HEK293, CRE-luciferase reporter, cherry pick, set 2, dose response (AID 743343); type: functional;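 further: transfected cells were stimulated with diluted bursicon conditioned medium after compound addition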
[9] = toxicity toward HepG2 liver cells – cell-based, plate reader, cherry-pick, antagonist series, cytotoxicity control, dose response (AID 743416); type: functional
[10] = viability loss in HEK293 cells – cell-based, plate reader, cherry-picked samples, cytotoxicity control, dose response (AID 743446); type: functional
[11] = A549 cell cytotoxicity, dose response, cytotoxicity control, plate reader, cherry-pick, antagonist series (AID 743412); type: functional, cell-based
HeLa = assay: ATP-based viability loss in HeLa cells – cell-based, CellTiter-Glo luminescence, cherry-pick samples, cytotoxicity control for MITF activator project, dose response (AID 540259); type: functional; conditions: Homo sapiens
HEK293 = assay: EBV LMP1 TES2 canonical NF-kB signalling blockers – cell-based, HEK293, luciferase, cherry-pick, dose response (AID 588343); type: functional; conditions: Homo sapiens
[12] = target: T5, Heat shock factor protein 1 (Mus musculus, UniProt P38532); assay: decrease of HSF1-responsive luciferase luminescence – cell-based, NIH3T3, dose retest, confirmation (AID 2382); type: functional;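 further: NIH3T3 fibroblasts with HSF1-driven luciferase reporter stressed by proteasome inhibitor MG132; luminescence from HSF1-driven luciferase expression after 8 hours of MG132 stress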
T5 sequence (P38532 whole entry): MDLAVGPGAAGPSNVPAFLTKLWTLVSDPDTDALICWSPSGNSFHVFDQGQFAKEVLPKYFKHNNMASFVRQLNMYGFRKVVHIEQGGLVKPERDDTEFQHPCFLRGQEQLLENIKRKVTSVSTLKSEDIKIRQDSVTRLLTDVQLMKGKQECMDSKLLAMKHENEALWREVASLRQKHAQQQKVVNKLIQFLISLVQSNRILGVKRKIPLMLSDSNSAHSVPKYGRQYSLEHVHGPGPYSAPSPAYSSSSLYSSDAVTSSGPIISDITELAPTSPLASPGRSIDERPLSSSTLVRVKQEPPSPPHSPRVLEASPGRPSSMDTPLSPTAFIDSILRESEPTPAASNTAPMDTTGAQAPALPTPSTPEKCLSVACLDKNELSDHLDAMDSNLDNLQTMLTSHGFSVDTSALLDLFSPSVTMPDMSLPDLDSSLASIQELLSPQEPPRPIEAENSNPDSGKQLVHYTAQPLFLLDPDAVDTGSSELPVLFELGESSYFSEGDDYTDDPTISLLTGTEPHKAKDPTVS

cells [13] = type: functional, cell-based
cells [14] = type: functional, cell-based; remark: listed apart in the source
[15] = Luminescence Cell-Based Dose Response HTS to Identify Activators of Luciferase Translation or Activity in H4 […] Cells. [Related pubchem assays: 1829 (Project Summary), 1814 (Primary HTS)]; type: functional
H4 = assay: Luminescence Cell-Based Dose Response HTS to Identify Activators of 5'UTR Stem-Loop Driven Prion Protein mRNA Translation in H4 Neuroglioblastoma Cells. [Related pubchem assays: 1829 (Project Summary), 1814 (Primary HTS)]; type: functional; conditions: Homo sapiens

Compound: CN(C(=O)C(Cl)Cl)c1ccc(OC(=O)c2ccco2)cc1 [DILOXANIDE FUROATE]
- AC50 [1]: 13.9 µM (active)
- EC50 (Protein RecA): 10.3 µM (active)
- AC50 (Cytochrome P450 3A4): inconclusive

Compound: CCc1ccc[n+](-c2nc3ccccc3nc2[C-](C#N)C#N)c1
- EC50 [2]: 59.2 µM (inactive)
- EC50 [3]: > 99 µM (inactive)

Compound: COc1ccc2nc(SCC(=O)N3CC(=O)Nc4ccccc43)c(C#N)cc2c1
- EC50 [2]: > 99 µM (inactive)
- EC50 [3]: > 99 µM (inactive)

Compound: CC1=NN(c2ccccc2)C(=O)/C1=C/C=C/c1ccccc1
- AC50 [4]: 2.41 µM (active)
- CC50 (Vero): 11.3 µM (active)

Compound: O=C(O)CCNc1cc(N2CCN(C(=O)c3ccco3)CC2)c2noc3c2c1C(=O)c1ccccc1-3
- IC50 (Nonstructural protein 1): 26.9 µM (active)
- IC50 [5]: 21.4 µM (active)

Compound: CCN(C[C@@H]1[C@@H](c2ccc(C3=CCCCC3)cc2)[C@@H](CO)N1CC1CC1)C(C)=O
- AC50 [6]: 31.2 µM (active)

Compound: COC(=O)CCC(=O)OC1(C)C(=O)C2=CN(C3CCCC3)C(c3ccc(OC)cc3)=CC2=C(Br)C1=O (stereo unspecified)
- IC50 (Genome polyprotein): 33.8 µM (active)
- IC50 [5]: 17.4 µM (active)

Compound: O=C(Cc1nc2ccccc2[nH]1)c1cccc([N+](=O)[O-])c1
- AC50 [7]: 5.45 µM (active)
- CC50 (Vero): 6.19 µM (active)
- AC50 [8]: 4.47 µM (active)
- AC50 [9]: 11.2 µM (active)
- AC50 [10]: 12.1 µM (active)
- AC50 [11]: 20.7 µM (active)

Compound: CC1CCC(NC(=O)c2cc3ccccc3cc2O)CC1 (stereo unspecified)
- AC50 (HeLa): 35.2 µM (active)

Compound: N#Cc1c(NC(=O)CCCC(=O)O)sc2c1CCCCC2
- AC50 (HEK293): 4.36 µM (active)

Compound: C[C@@H](C(=O)Nc1ccc2c(c1)OCCO2)n1c(=O)[nH]c2ccccc2c1=O
- EC50 [12]: 0.377 µM (active)
- EC50 (cells [13]): > 350 µM (not active)
- AC50 (HEK293): 6.08 µM (active)
- EC50 (cells [14]): > 350 µM (not active)

Compound: COc1cc(OC)c(OC)cc1/C=C(\C#N)C(=O)NCc1cccs1
- EC50 [2]: > 99 µM (inactive)
- EC50 [3]: > 99 µM (inactive)

Compound: O=C(CCNc1ccccc1)c1ccc2c(c1)OCO2
- AC50 (HeLa): 111 µM (active)

Compound: Cn1c(C(=O)NCCc2c[nH]c3ccccc23)cc2sccc21
- AC50 (HeLa): 239 µM (active)
- EC50 [15]: 21.7 µM (active)
- EC50 (H4): 14.7 µM (active)

Compound: Cn1c2ccccc2c(=O)c2ccc(-c3ccc4c(c3)OCO4)cc21
- AC50 (HeLa): 46.6 µM (active)

Compound: COc1ccc(-c2cc(C(=O)N3CCCC3)no2)cc1
- AC50 [7]: 5.22 µM (active)
- AC50 (HEK293): 3.97 µM (active)
- AC50 [8]: 5.07 µM (active)
